Experimental data reported in paper PMC10150359 (Journal of Medicinal Chemistry, 2023).
Read-outs that look alike come from different tables or passages of the source.

Experiments:
[1] = tested on: VSV-G-pseudotype virus (pVSV-G); assay: microbe, parasite or virus in culture; format: cell-based; conditions: Vesicular stomatitis virus, read-out: %inh@10 µM (pVSV-G)
[2] = tested on: EBOV-GP-Pseudotype Virus (pEBOV)
[3] = tested on: wild-type Zaire EBOV Mayinga 1976 strain (EBOV May)
[4] = tested on: EBOV-GP-Pseudotype Virus (pEBOV); conditions: cited from earlier work
[5] = tested on: EBOV-GP-Pseudotype Virus (pEBOV); assay: microbe, parasite or virus in culture; conditions: Zaire ebolavirus, HeLa, 48 h, read-out: EC50 (μM) (pEBOV)
[6] = tested on: wild-type Zaire EBOV Mayinga 1976 strain (EBOV May); assay: microbe, parasite or virus in culture; conditions: Zaire ebolavirus, Vero C1008, 72 h, read-out: EC50 (μM), replicative EBOV
in vitro [7] = conditions: human
in vitro [8] = conditions: chlorocebus sabaeus
EBOV-GPcl/NPC1-domain C = EBOV-GPcl/NPC1-domain C (Zaire ebolavirus, UniProt Q05320); format: binding, Homo sapiens
Sequence of EBOV-GPcl/NPC1-domain C (Q05320 33-190 limits assumed): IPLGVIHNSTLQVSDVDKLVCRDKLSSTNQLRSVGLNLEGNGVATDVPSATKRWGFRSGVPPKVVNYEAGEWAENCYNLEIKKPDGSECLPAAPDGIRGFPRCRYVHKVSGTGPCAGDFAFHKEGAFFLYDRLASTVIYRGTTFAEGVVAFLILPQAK
Sequence of EBOV-GPcl/NPC1-domain C (Q05320 502-676 limits assumed): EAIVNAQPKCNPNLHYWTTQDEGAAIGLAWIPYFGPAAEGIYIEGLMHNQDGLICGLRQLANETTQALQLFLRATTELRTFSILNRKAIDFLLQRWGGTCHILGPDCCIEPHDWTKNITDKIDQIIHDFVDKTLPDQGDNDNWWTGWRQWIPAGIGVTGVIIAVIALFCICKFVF

[9] = pH 7.4
[10] = CD-1, mouse, pH 7.4
hERG potassium channel [11] = molecular target: T1, hERG potassium channel (Homo sapiens, UniProt Q12809)
T1 sequence (Q12809 whole entry): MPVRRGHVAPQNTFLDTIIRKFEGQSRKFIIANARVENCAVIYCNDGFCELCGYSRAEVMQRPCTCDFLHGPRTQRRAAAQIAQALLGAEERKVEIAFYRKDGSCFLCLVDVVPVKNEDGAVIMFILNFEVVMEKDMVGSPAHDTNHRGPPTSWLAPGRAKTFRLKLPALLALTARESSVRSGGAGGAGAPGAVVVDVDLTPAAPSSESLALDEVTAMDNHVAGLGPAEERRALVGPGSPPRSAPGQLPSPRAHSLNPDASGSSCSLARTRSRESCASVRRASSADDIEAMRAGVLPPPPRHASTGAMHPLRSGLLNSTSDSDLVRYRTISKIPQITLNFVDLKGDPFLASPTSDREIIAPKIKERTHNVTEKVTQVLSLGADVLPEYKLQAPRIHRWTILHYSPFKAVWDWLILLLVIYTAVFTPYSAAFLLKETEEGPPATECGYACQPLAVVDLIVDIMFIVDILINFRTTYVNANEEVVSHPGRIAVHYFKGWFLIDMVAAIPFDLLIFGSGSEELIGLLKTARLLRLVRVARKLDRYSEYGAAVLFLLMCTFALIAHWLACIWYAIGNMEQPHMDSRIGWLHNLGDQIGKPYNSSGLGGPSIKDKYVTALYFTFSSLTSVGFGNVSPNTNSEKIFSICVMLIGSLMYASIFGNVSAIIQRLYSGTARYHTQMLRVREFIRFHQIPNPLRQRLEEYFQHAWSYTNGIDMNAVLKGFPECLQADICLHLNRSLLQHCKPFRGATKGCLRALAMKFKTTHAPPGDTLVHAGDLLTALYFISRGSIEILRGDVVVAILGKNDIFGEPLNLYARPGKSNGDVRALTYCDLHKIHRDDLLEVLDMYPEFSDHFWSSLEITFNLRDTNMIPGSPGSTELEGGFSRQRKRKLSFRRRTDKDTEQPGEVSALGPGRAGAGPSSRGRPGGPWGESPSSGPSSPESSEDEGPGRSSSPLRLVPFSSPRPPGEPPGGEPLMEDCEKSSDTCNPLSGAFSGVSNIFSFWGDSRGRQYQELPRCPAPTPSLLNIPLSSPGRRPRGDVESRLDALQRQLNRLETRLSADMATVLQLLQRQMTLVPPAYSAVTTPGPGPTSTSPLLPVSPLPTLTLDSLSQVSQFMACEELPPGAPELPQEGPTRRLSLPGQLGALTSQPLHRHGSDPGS

[12] = male, BALB/c, mouse, in vivo
in vivo = conditions: male, BALB/c, mouse; for Cmax at 24 h: Cmax (ng/mL)
in vitro [13] = conditions: human, microsomes, pH 7.4
in vitro [14] = conditions: CD-1, mouse, microsomes, pH 7.4
hERG potassium channel [15] = molecular target: T1, hERG potassium channel; assay: in vitro; conditions: pH 7.2
[16] = ip, 10 mg/kg, Brain-Kp (AUClast)
[17] = po, 50 mg/kg, Brain-Kp (AUClast)

SMILES | inhibition at 10 µM [1] [%] | SI (pEBOV) (CC50/EC50) [2] | SI (CC50/EC50), replicative EBOV [3] | EC50 [5] [µM] | EC50 [6] [µM] | CC50 at 24 h (in vitro [7]) [µM] | CC50 at 24 h (in vitro [8]) [µM] | loss of binding between EBOV-GPcl/NPC1-domain C (EBOV-GPcl/NPC1-domain C) | CLint (mL/min/mg protein), human liver microsomes [9] [mL/min/mg protein] | CLint (mL/min/mg protein), mouse liver microsomes [10] [mL/min/mg protein] | cardiotoxicity classification from hERG IC50 (hERG potassium channel [11]) | Kp at 24 h (in vivo; [16]) | Kp at 24 h (in vivo; ip, 10 mg/kg, Brain-Kp (Cmax)) | half-life at 24 h (in vivo; po, 50 mg/kg) [min] | Kp at 24 h (in vivo; [17]) | Kp at 24 h (in vivo; po, 50 mg/kg, Brain-Kp (Cmax)) | half-life at 1 h, 10 µM (in vitro [13]) [min] | half-life at 1 h, 10 µM (in vitro [14]) [min] | IC50 (hERG potassium channel [15]) [µM] | other results
O=C(CNCCC1CCN(Cc2ccccc2)CC1)Nn1c2ccccc2c2ccccc21 [Compound 1] | 25 | 19 | 11.0 | 0.37 | 1.5 | – | – | – | – | – | – | – | – | – | – | – | – | – | – | IC50 [4]: 0.37 µM
O=C(CNCCC1CCN(Cc2ccccc2)CC1)NN(c1ccccc1)c1ccccc1 [Compound 10, 2-((2-(1-Benzylpiperidin-4-yl)ethyl)amino)-N′,N′-diphenylacetohydrazide] | 2 | 15 | 16.9 | 3.13 | 1.9 | 48 | 32.2 | – | – | – | – | – | – | – | – | – | – | – | – | –
O=C(CCNCCC1CCN(Cc2ccccc2)CC1)NN(c1ccccc1)c1ccccc1 [Compound 11, 3-((2-(1-Benzylpiperidin-4-yl)ethyl)amino)-N′,N′-diphenylpropanehydrazide] | 50 | – | – | 0.05 | 0.3 | 6 | 9.47 | does it to a lesser extent | 13 ± 1 | 96 ± 23 | not cardiotoxic | 2.04 | 0.18 | 352 | 1.66 | 0.72 | 45 ± 3 | 26 ± 6 | 16.4 | estimated concentration on plasma [12]: 0.62 µM; AUClast ([12]; po, 50 mg/kg, 24 h): 3354.96 ng·h/mL; Cmax ([12]; po, 50 mg/kg, 24 h): 201.45 ng/mL; AUC(0-t) at 24 h (in vivo; po, 50 mg/kg, AUClast (h × ng/mL)): 2020 ng·h/mL; Cmax at 24 h (in vivo; po, 50 mg/kg): 278 ng/mL
O=C(CNCCN1CCN(Cc2ccccc2)CC1)NN(c1ccccc1)c1ccccc1 [Compound 12, 2-((2-(4-Benzylpiperazin-1-yl)ethyl)amino)-N′,N′-diphenylacetohydrazide] | -29 | 63 | 12.9 | 2.17 | 7.8 | 108 | 101 | – | – | – | – | – | – | – | – | – | – | – | – | –
O=C(CCNCCN1CCN(Cc2ccccc2)CC1)NN(c1ccccc1)c1ccccc1 [Compound 13, 3-((2-(4-Benzylpiperazin-1-yl)ethyl)amino)-N′,N′-diphenylpropanehydrazide] | 42 | – | – | 0.58 | 2.7 | 159 | 35.5 | interferes with the NPC1/EBOV-GPcl interaction similarly than our hit 1 (SC816) | 10.8 ± 0.3 | 170 ± 20 | not cardiotoxic | 46.4 | 0.99 | 262 | 46.5 | 3.65 | 53 ± 2 | 14 ± 2 | 14.9 | Cmax ([12]; ip, 10 mg/kg, 24 h): 170.55 ng/mL; half-life at 24 h (in vivo; ip, 10 mg/kg): 46.2 min; Cmax at 24 h (in vivo; ip, 10 mg/kg): 172 ng/mL
